pEC50: −log10 of the molar value.
Assays:
Nicastrin = molecular target: T1, Nicastrin (Homo sapiens, UniProt Q92542); test: thermal proteome profiling (iTRAQ LC-MS/MS), isothermal dose-response stabilization at […] °C, SH-SY5Y cells; format: biochemical
T1 construct: gene NCSTN

Casein kinase 1 epsilon = molecular target: T2, Casein kinase 1 epsilon (Homo sapiens, UniProt P49674); test: as above; format: biochemical
T2 construct: gene CSNK1E
T2 sequence (P49674 whole entry): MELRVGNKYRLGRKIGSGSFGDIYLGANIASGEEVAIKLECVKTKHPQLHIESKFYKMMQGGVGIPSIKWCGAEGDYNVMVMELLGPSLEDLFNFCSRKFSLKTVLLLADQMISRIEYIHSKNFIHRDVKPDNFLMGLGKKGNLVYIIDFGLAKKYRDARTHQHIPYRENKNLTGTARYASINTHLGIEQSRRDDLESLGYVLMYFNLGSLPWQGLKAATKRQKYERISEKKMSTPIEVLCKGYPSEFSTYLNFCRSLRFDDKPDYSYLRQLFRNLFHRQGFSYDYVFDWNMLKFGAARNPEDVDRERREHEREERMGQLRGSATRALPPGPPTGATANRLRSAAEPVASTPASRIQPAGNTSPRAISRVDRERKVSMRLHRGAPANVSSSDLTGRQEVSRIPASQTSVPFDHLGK

T1 sequence (Q92542 34-709): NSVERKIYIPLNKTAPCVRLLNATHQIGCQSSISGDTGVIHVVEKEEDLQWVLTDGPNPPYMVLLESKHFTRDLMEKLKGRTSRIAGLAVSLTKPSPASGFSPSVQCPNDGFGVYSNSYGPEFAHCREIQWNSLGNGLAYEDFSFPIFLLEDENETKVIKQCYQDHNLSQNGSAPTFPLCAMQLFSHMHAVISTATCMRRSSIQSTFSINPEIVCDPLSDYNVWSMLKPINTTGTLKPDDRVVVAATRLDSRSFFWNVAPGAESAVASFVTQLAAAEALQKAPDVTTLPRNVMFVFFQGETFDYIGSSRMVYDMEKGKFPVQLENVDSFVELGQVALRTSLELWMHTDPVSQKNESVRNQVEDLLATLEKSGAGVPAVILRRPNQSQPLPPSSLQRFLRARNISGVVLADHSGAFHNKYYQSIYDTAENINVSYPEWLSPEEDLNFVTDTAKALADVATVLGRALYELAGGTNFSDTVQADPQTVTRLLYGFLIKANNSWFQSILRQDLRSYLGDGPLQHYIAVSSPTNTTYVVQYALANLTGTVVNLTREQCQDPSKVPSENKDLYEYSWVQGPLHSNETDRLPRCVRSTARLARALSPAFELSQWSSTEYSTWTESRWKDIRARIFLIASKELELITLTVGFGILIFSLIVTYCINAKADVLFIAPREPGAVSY

pEC50 (Nicastrin): 5.22
pEC50 (Casein kinase 1 epsilon): 5.14
Structure (SMILES): C[C@H](CCC(=O)O)[C@H]1CC[C@H]2[C@@H]3CC[C@@H]4C[C@H](O)CC[C@]4(C)[C@H]3C[C@H](O)[C@]12C [deoxycholic acid]
